Measurements from patent US7122203B2, “Stabilized formulations of 6-hydroxy-3-(-4-[2-(piperidin-1-yl) ethoxy]phenoxy)-2-(4-methoxyphenyl) benzo[b]thiophene and salts thereof” (Eli Lilly and Company, priority 2000, dated 2006).

Key:
Type in all cases: physicochemical
[1] = Hygroscopicity / moisture sorption isotherms; details: for water content: ambient relative humidities (about 50% R.H.); for water content / immediate weight gain (moisture): hydrochloride; for immediate weight gain (moisture): upon initial exposure to approximately 5% R.H.
Method: Hygroscopicity measurements were made for F-I and F-III using the VTI method as follows. Each sample was dried under vacuum at 60° C. until no further weight loss was detected, at which time the sample chamber was brought to 0% relative humidity. Moisture sorption isotherms were obtained at 25° C. using a VTI vacuum moisture balance with the following conditions: sample size 10–15 mg, adsorption/desorption range 0–95% relative humidity, step interval 5%, sample interval 10 minutes.
Moisture Sorption Isotherms were generated using a VTI SGA-100 flow instrument. The samples were analyzed at 25° C. from 0–95% relative humidity (RH) for adsorption and from 95–5% RH for desorption in steps of 5% RH. The adsorption and desorption isotherms were generated as a graph of the % weight change vs. % RH.

[2] = Aqueous solubility and dissolution rate of crystal forms
[3] = Physical stability of crystal forms (XRD at different relative humidities, variable temperature XRD)
Method: XRD patterns were obtained on a […] powder diffractometer, equipped with a CuKα source (λ=1.54056 Å) and a Kevex solid-state detector, operating at 50 kV and 40 mA. Each sample was scanned between 4° and 35° in 2θ. Samples were allowed to equilibrate for at least 30 minutes at the desired temperature and/or relative humidity before data collection. Variable temperature X-ray powder diffraction patterns were obtained on a […] powder diffractometer which was equipped with a CuKα source (λ=1.54056 Å) operated at 50 kV and 40 mA with a scintillation detector and nickel filter. The powder was packed into a top-loading, recessed temperature controlled holder and a smooth surface was obtained for diffraction. The sample was scanned from 2 to 35° 2θ at 2.5 seconds per step size of 0.04° beginning at 25° C. after an equilibration time of 5 minutes. Subsequent scans were obtained at increasing temperature increments of 25° C. to a maximum of 125° C.

COc1ccc(-c2sc3cc(O)ccc3c2Oc2ccc(OCCN3CCCCC3)cc2)cc1.Cl [F-III, 6-Hydroxy-3-(4-[2-(piperidin-1-yl)ethoxy]phenoxy)-2-(4-methoxyphenyl)benzo[b]thiophene hydrochloride]
water content [1]: about 3.7%
immediate weight gain (moisture) ([1]; 25° C.): 1.7%
aqueous solubilities and dissolution rates of the two forms (F-I vs F-III) [2]: comparable
physical stability over the entire relative humidity range [3]: physically stable

COc1ccc(-c2sc3cc(O)ccc3c2Oc2ccc(OCCN3CCCCC3)cc2)cc1.Cl [F-V, 6-Hydroxy-3-(4-[2-(piperidin-1-yl)ethoxy]phenoxy)-2-(4-methoxyphenyl)benzo[b]thiophene hydrochloride]
weight increase in moisture sorption/desorption isotherm ([1]; over the range of 0–95% RH, 25° C.): 0.11%
higher aqueous solubility relative to F-III [2]: ~10%
thermodynamic stability among known forms of arzoxifene hydrochloride ([3]; ambient storage conditions): thermodynamically most stable known form
change in diffraction pattern, variable temperature x-ray powder diffraction ([3]; up to 125° C.): no significant change

COc1ccc(-c2sc3cc(O)ccc3c2Oc2ccc(OCCN3CCCCC3)cc2)cc1.Cl [F-I, 6-Hydroxy-3-(4-[2-(piperidin-1-yl)ethoxy]phenoxy)-2-(4-methoxyphenyl)benzo[b]thiophene hydrochloride]
water content [1]: about 2.2%
immediate weight gain (moisture) ([1]; 25° C.): 1.5%
aqueous solubilities and dissolution rates of the two forms (F-I vs F-III) [2]: comparable
physical stability over the entire relative humidity range [3]: physically stable
